This note sets out measurements from patent US20240391958A1, “KEANUMYCINS AND USES THEREOF IN MEDICINE AND PLANT PROTECTION” (Leibniz-Institut für Naturstoff-Forschung und …, priority 2023, published 2024).

Broadly, the IC50 is the concentration at which inhibition is half-maximal. Read a low IC50 as greater potency in that assay. Broadly, the GI50 is the concentration that inhibits growth by half. Broadly, the CC50 is the concentration that lowers cell viability or growth by half. Low readings indicate harm at low concentration, high ones better tolerance by the cells.

Data set [1] deals with D. discoideum cells (AX2). Briefly: Amoebicidal activity against D. discoideum (cell count, CASY). As to conditions: Dictyostelium discoideum; 72 h, 22 °C, average of two experiments. The class given is cell-based. The procedure:
Amoebicidal activity of keanumycin A against D. discoideum was determined using a previously published method. In brief, 3000 D. discoideum cells (AX2) were cultured in 96-well plates (Sarstedt) in 200 μL HL5 medium containing 1% DMSO (Carl Roth) and a specified amount of compound (starting from 0.5 μM; 2-fold serial dilution) in triplicates at 22° C. After 72 h the cell concentration was determined according to the manufacturers instruction using a CASY® Cell Counter+Analyser System (Model TT, Roche Innovatis AG) equipped with a 60 μm capillary and the evaluation cursor set to 7.5-17.5 μm. The viable cell concentration (including standard deviation) was plotted against the logarithmic concentration of the compound and the IC50 value was determined using PRISM (GraphPad, Version 5.03).

The subject of data set [2] is A. castellanii. Briefly: Amoebicidal activity against Acanthamoeba (resazurin assay). The class given is cell-based. Particulars: 96 h, 28 °C, average of two experiments. As for the experimental part: (§1) Amoebicidal activity of keanumycin A against Acanthamoeba was determined by culturing A. castellanii or A. comandoni in 96-well plates (Sarstedt) in 100 μL PYG medium (ATCC Medium 712; https://www.atcc.org) containing 1% DMSO (Carl Roth) and a specified amount of compound (starting from 50 μM; 2-fold serial dilution) in triplicates at 28° C. After 96 h the cell viability was determined using a resazurin assay. Therefore, 20 μL of a 1 mM resazurin sodium (Sigma) solution in water was added per single well before it was allowed to incubate for another 3 h at 28° C. Using a plate reader (Tecan Life Sciences, excitation 560 nm and emission 590 nm) the fluorescence emission was determined. The fluorescence (including standard deviation) was plotted against the logarithmic concentration of the compound and the IC50 value was determined using PRISM (GraphPad, Version 5.03).
On the technique in general: The colour change of resazurin is a common sign of viable cells or microbes.

For data set [3], the system named is A. comandoni. The description is as above. As to conditions: 96 h, 28 °C, average of two experiments. It counts as cell-based. As for the experimental part: as §1
For data set [4], the system named is human chronic myeloid leukemia cells K-562 (DSM ACC 10). Nature of the data set: Antiproliferative effect. The class given is cell-based. The procedure: (§2) Keanumycin A was assayed for antiproliferative effects (GI50) using human umbilical vein endothelial cells HUVEC (ATCC CRL-1730) and human chronic myeloid leukemia cells K-562 (DSM ACC 10) and for their cytotoxic effects (CC50) using human cervix carcinoma cells HeLa (DSM ACC 57) as previously described). The test compounds were dissolved in DMSO (10 mg mL-1).

For data set [5], the system named is human umbilical vein endothelial cells HUVEC (ATCC CRL-1730). Briefly: Antiproliferative effect. It counts as cell-based. As for the experimental part: as §2
Data set [6] is described as follows: Cytotoxicity. It counts as cell-based. As to conditions: human, HeLa cervix carcinoma cells (DSM ACC 57). As for the experimental part:
as §2

In data set [7] the test system is human vaginal epithelial cells A431 infected with C. albicans. Briefly: C. albicans vaginal epithelial infection model, epithelial damage (LDH). It counts as cell-based. As to conditions: 24 hours of infection, tested 1-16 μg/ml. As for the experimental part:
(§3) FIGS. 7A-7B show in 7A) Keanumycin A protected human vaginal epithelial cells in C. albicans infection model. Micrograph depicts % damage to human vaginal epithelial cells A431 (y-axis) in the presence of keanumycin A at varied concentrations (x-axis) as estimated by LDH cytotoxicity assay after 24 hours of infection or treatment. LDH absorbance was normalized to C. albicans infected and uninfected controls. Keanumycin A protected vaginal cells from damage by C. albicans at a narrow concentration range from 4-8 μg/ml (black line). Keanumycin A was toxic to vaginal cells at concentrations above 8 μg/ml (grey line) (N=3). […] Vaginal epithelial cells were lysed after 24-hour infection, and fungal viability was measured by XTT absorbance, normalized to C. albicans infected and uninfected controls (N=2) […]
(§4) Overnight culture of C. albicans strain SC5314 grown in YPD at 30° C., shaking at 180 RPM was harvested, washed twice with PBS. […] Epithelial damage was measured 24 hours after infection by collecting and diluting the supernatant 1:10 in PBS and measuring the lactate dehydrogenase (LDH) activity with the Roche Cytotoxicity Detection Kit (LDH) as per manufacturer's instructions. The absorbance (490 nm) values are represented as percentage damage, which is normalized to the low control, where medium only is 0% damage, and high control, where C. albicans infection is 100% damage. […]

Data set [8] has as its system C. albicans. Briefly: Fungal viability in vaginal epithelial infection model (XTT). It counts as cell-based, Candida albicans. As to conditions: XTT absorbance after 24-hour infection, N=2. As for the experimental part: as §3, §4
(Tetrazolium assays rely on reduction of a dye to a coloured formazan, in cell work by metabolically active cells.)

Data set [9] concerns HAC1 mRNA. Nature of the data set: Splicing of HAC1 mRNA (Ire1-Hac1 UPR pathway). The class given is cell-based, Candida albicans. Particulars: compared to positive tunicamycin control. From the text:
(§5) To see if keanumycin A triggers the same canonical Ire1-Hac1 UPR pathway, the inventors looked at the splicing of HAC1 mRNA, which is regulated by Ire1. […] Since no other specific signaling pathway stood out, the inventors screened homozygous knockout mutants for significant growth differences in the absence and presence of a sublethal concentration of the NRLP. […] PLB5 is an important gene for phospholipid homeostasis and PMT6 codes for a transmembrane protein mannosyltransferase, which is involved in the construction of the outmost mannan cell wall layer in C. albicans.

In data set [10] the test system is C. albicans homozygous knockout mutants. Briefly: Screen of homozygous knockout mutants for growth differences. As to conditions: absence vs presence of a sublethal concentration. The class given is cell-based, Candida albicans.
Text: as §5

The subject of data set [11] is C. albicans. Nature of the data set: Membrane permeabilization assay using SYTOX Green. It counts as cell-based, Candida albicans. As to conditions: 4 μg mL-1 in 1% DMSO. From the text: Only isolated cells are stained, which can be explained by the fact that the dye can also be used to distinguish dead from live cells. Scale bar=100 μm.
To finally examine if keanumycin A is a membrane-active compound, the inventors performed a membrane permeabilization assay using SYTOX Green (FIG. 6). As a cell-impermeant dye, SYTOX Green enters the cell upon loss of membrane integrity and binds to DNA, which results in fluorescently stained cells. […] Thus, the keanumycins are membrane-active compounds that disturb the structure of the fungal […].

Molecules are shown by their SMILES. Read-outs that look alike come from different tables or passages of the source. Where a SMILES comes first, the peptide text is derived from it. Bridges are numbered along the chain shown (N, C = ends). [ ]: non-standard residue; d: D form. The star is where a group is joined. X1 = CCCCCCCCCCCC[C@@H](O)[C@@H](O)CC(=O)*; Asp(3S-OH) = N[C@H](C(=O)O)[C@H](O)C(=O)O; Thr(4-Cl) = N[C@H](C(=O)O)[C@H](O)CCl; aThr = C[C@H](O)[C@H](N)C(=O)O; d(hSer) = N[C@H](CCO)C(=O)O; dDab = NCC[C@@H](N)C(=O)O; Dab = NCC[C@H](N)C(=O)O; Dhb = C/C=C(\N)C(=O)O

On to `C/C=C1\NC(=O)[C@H]([C@H](C)O)NC(=O)[C@H](CCN)NC(=O)[C@@H](CCO)NC(=O)CNC(=O)[C@@H](CCN)NC(=O)[C@@H](NC(=O)C[C@H](O)[C@H](O)CCCCCCCCCCCC)COC(=O)[C@H]([C@H](O)CCl)NC(=O)[C@H]([C@H](O)C(=O)O)NC1=O` [Keanumycin A, keanumycin A] (X1-S[dDab]G[d(hSer)][Dab][aThr][Dhb][Asp(3S-OH)][Thr(4-Cl)]; ester 1-C), for which the IC50 came out at 0.0044 µM in [1], 2 µM in data set [2] and 3.1 µM in data set [3]. Moreover, the GI50 was 26.8 µg/mL in [4] (K562); 23 µM in [4] (K562, K-562, converted value, read-out: GI50); ≥ 50 µg/mL in data set [5]; > 43 µM in data set [5] (converted value, read-out: GI50). Further, the CC50 came out at 34.9 µg/mL in data set [6] and 30 µM in data set [6] (HeLa, converted value). The “concentration range protecting vaginal cells from damage by C. albicans” value in [7] lay within 4 to 8 µg/mL. Moreover, the “% fungal viability of C. albicans in infection model” value in data set [8] is “reduced C. albicans viability”. The “splicing of HAC1 mRNA” value in data set [9] is reported as “could not observe splicing in HAC1 mRNA”. For the same compound, the “growth differences of knockout mutants” value in data set [10] is “most prominent growth differences were observed for Δmkc1, Δplb5, and Δpmt6”. The results for the “membrane permeabilization (SYTOX Green staining)” value in data set [11] and in [11] (listed as keanumycin A) were “permeabilizes the cell wall of the fungi” and “staining of all cells”, respectively.
